This is an account of results in publication PMC11775380, “Discovery of Novel Nav1.7-Selective Inhibitors with the 1H-Indole-3-Propionamide Scaffold for Effective Pain Relief” (Research, 2025).

In this assay the target is T1, human Nav1.7 (hNav1.7) (Homo sapiens, UniProt Q15858).
T1 construct: expressed in transfected cells; host or cells: HEK293T
T1 sequence (Q15858 whole entry): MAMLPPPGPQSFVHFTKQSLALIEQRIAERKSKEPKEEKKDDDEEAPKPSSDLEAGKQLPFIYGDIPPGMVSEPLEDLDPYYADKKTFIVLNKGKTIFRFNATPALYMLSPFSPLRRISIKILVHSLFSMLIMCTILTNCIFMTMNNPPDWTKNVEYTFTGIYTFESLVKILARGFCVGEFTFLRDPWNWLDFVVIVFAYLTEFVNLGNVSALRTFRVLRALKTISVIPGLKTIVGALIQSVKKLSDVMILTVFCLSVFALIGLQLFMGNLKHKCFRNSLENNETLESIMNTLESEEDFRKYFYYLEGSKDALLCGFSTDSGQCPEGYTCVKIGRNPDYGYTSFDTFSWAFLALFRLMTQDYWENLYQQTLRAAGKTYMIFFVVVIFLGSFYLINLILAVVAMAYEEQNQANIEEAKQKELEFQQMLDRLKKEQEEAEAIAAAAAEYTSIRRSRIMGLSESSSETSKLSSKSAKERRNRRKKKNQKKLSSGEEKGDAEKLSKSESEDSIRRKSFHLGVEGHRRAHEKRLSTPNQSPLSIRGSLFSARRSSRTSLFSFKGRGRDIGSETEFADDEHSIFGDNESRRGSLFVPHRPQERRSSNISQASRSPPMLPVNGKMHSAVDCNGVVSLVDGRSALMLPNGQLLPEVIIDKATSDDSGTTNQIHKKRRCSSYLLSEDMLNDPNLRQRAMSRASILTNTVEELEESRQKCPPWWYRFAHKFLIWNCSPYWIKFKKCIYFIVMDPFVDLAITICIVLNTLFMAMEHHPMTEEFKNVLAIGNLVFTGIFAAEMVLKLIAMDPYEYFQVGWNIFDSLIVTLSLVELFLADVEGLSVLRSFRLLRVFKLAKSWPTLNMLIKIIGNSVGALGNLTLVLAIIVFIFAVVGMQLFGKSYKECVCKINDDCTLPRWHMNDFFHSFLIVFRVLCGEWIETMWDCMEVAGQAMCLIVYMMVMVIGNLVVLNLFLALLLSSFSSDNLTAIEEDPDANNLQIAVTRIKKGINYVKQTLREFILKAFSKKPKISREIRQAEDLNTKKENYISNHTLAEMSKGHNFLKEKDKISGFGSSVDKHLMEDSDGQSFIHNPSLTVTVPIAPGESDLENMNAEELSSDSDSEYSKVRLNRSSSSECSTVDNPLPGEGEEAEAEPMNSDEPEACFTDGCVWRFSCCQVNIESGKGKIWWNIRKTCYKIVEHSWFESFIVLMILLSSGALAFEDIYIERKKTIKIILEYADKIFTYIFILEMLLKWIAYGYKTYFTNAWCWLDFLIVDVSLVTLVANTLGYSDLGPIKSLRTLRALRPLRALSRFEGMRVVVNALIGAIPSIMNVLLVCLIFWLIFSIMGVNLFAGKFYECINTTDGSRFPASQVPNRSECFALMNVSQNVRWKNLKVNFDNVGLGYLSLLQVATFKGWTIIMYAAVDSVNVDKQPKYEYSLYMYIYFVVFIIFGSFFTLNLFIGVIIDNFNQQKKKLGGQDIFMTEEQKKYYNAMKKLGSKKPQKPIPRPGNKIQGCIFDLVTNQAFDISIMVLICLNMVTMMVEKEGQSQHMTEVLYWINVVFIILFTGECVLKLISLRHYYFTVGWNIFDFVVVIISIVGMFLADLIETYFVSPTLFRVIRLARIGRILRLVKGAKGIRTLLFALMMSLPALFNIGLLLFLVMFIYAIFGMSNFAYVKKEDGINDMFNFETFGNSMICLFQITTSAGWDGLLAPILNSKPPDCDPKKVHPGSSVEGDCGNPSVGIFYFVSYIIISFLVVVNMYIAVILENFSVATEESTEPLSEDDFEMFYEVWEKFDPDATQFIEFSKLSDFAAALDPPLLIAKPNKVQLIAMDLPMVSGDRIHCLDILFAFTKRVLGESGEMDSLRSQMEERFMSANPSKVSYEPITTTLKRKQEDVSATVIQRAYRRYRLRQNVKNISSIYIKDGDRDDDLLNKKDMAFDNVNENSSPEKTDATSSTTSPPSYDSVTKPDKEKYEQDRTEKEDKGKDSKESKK
T1 sequence (Q07699 19-218 partner): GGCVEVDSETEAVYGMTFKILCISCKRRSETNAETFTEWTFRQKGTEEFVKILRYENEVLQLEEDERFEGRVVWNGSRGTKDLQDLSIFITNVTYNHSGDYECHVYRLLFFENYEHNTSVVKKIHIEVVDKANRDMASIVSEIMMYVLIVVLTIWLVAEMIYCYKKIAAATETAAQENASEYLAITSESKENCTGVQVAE
T1 sequence (O60939 30-215 partner): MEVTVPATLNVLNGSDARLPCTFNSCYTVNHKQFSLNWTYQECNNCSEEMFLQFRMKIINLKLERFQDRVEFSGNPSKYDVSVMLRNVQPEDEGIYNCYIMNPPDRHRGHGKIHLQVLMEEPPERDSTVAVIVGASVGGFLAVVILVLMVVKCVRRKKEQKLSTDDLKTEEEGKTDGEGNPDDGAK
The assay can be described thus: Whole-cell patch-clamp inhibition of Nav1.7 currents in transfected HEK293T cells. The format is cell-based. The conditions noted are these: HEK-293T; 10 μM compound; inhibition rate of Nav1.7; read-out: Inhibitory activity (10 μM). Here is the method:
Human embryonic kidney (HEK) 293T (ATCC CRL-3216) and ND7/23 cells (National Collection of Authenticated Cell Cultures SCSP-5026) were cultured under standard conditions (5% CO2, 37 °C) in Dulbecco’s modified Eagle’s medium (DMEM) containing 10% fetal bovine serum and 1% penicillin-streptomycin solution(all from Gibco, Thermo Fisher Scientific, Waltham, MA, USA). When the cells reached 70% to 90% confluence, human Nav1.2 (hNav1.2), human Nav1.3 (hNav1.3), human Nav1.4 (hNav1.4), human Nav1.5 (hNav1.5), and mouse Nav1.6 (mNav1.6) channel plasmids were cotransfected with enhanced green fluorescent protein (eGFP) into HEK293T cells. Additionally, plasmids expressing β1 and β2 subunits tagged with eGFP were cotransfected with the human Nav1.7 (hNav1.7) channel into HEK293T cells. Human Nav1.8 (hNav1.8) was transiently transfected into ND7/23 cells, along with eGFP, using Lipofectamine 2000 (Invitrogen), adhering strictly to the manufacturer’s protocol. For manual patch-clamp experiments, the cells were plated onto glass coverslips and used within 20 to 48 h of transfection.
Whole-cell patch-clamp recordings were conducted at 25 ± 2 °C, utilizing an EPC 10USB patch-clamp amplifier (HEKA Elektronik, Lambrecht, Germany). Pipettes, with access resistance between 2.0 and 3.0 MΩ, were pulled from borosilicate glass capillary tubes using a 2-step vertical microelectrode puller (PC-10, Narishige Group, Tokyo, Japan). Voltage-clamp recordings were obtained with PatchMaster software v2 × 73 (HEKA Elektronik) 5 min after establishing whole-cell configuration, sampled at 20 kHz, and filtered at 5 kHz. To minimize voltage errors, 80% series resistance compensation was applied. Pipettes were filled with 140 mM CsF, 10 mM NaCl, 1 mM EGTA, and 10 mM HEPES (pH=7.4, adjusted with CsOH). The external solution contained 140 mM NaCl, 2 mM CaCl2, 1 mM MgCl2, 5 mM KCl, 10 mM HEPES, and 10 mM glucose (pH=7.4, adjusted with NaOH). IC50 values were determined in HEK293T or ND7/23 cell lines by voltage clamping at −80 mV, followed by stepping to the V1/2 of inactivation for 8 s to facilitate compound binding.
Background: In patch-clamp work, channel activity is measured electrically.
On to `O=C(CSc1nc(=O)n(Cc2cccnc2)c2c1CCC2)NCc1ccc(F)cc1` [A1, C1CC2=C(C1)N(C(=O)N=C2SCC(=O)NCC3=CC=C(C=C3)F)CC4=CN=CC=C4], for which the inhibition at 10 µM is -0.67%. As to `COc1ccc(S(=O)(=O)Nc2ccc3c(c2)CCCN3C(=O)c2ccccc2)cc1OC` [A2, COC1=C(C=C(C=C1)S(=O)(=O)NC2=CC3=C(C=C2)N(CCC3)C(=O)C4=CC=CC=C4)OC], the inhibition at 10 µM was determined as 36.6%.

As to `O=C(CC(c1cccc(OCc2ccccc2)c1)c1cn(Cc2ccc(F)cc2)c2ccccc12)NCCc1ccccc1` (stereo not shown) [A3, C1=CC=C(C=C1)CCNC(=O)CC(C2=CC(=CC=C2)OCC3=CC=CC=C3)C4=CN(C5=CC=CC=C54)CC6=CC=C(C=C6)F], the inhibition at 10 µM worked out at 9.09%. In the case of `O=C(CN(C(=O)c1ccc(Cl)cc1)C1CC1)Nc1nc(-c2ccccc2)cn1-c1ccccc1` [A4, C1CC1N(CC(=O)NC2=NC(=CN2C3=CC=CC=C3)C4=CC=CC=C4)C(=O)C5=CC=C(C=C5)Cl] it was 76.4%. For the molecule `COCCNC(=O)CC(c1ccc(OCc2ccccc2)c(OC)c1)c1cn(Cc2ccc(F)cc2)c2ccccc12` (stereo not shown) [A5, COCCNC(=O)CC(C1=CC(=C(C=C1)OCC2=CC=CC=C2)OC)C3=CN(C4=CC=CC=C43)CC5=CC=C(C=C5)F], the inhibition at 10 µM is 3.57%. In the case of `O=C(CC(c1cccc(Cl)c1)c1cn(Cc2ccc(F)cc2)c2ccccc12)NCC1COc2ccccc2O1` (stereo not shown) [A7, FC(C=C1)=CC=C1CN2C=C(C(CC(NCC3COC(C=CC=C4)=C4O3)=O)C5=CC(Cl)=CC=C5)C6=CC=CC=C62] it was 58%; in that of `COc1ccc(N2CC(C(=O)NC3CCCc4c3[nH]c3ccccc43)CC2=O)c(OC)c1` (stereo not shown) [A8, COC1=CC(=C(C=C1)N2CC(CC2=O)C(=O)NC3CCCC4=C3NC5=CC=CC=C45)OC], 12.1%.

With `Brc1ccc(-c2nc(-c3ccc(Oc4ccccc4)cc3)c(-c3ccc(Oc4ccccc4)cc3)[nH]2)cc1` [A9, C1=CC=C(C=C1)OC2=CC=C(C=C2)C3=C(N=C(N3)C4=CC=C(C=C4)Br)C5=CC=C(C=C5)OC6=CC=CC=C6], the inhibition at 10 µM was found to be 4.44%. In the case of `O=C1OC(Nc2ccc(S(=O)(=O)Nc3ccccn3)cc2)c2ccccc21` (stereo not shown) [A10, C1=CC=C2C(=C1)C(OC2=O)NC3=CC=C(C=C3)S(=O)(=O)NC4=CC=CC=N4] it was 2.74%.

For `CS(=O)(=O)c1ccc2nc(NC(=O)Nc3ccc(Cl)c(Cl)c3)sc2c1` [A11, CS(=O)(=O)C1=CC2=C(C=C1)N=C(S2)NC(=O)NC3=CC(=C(C=C3)Cl)Cl], the inhibition at 10 µM worked out at 4.91%. As for `CC(=O)N1CCc2nc3sc(C(=O)Nc4cccc(C#N)c4)c(N)c3c(C(F)(F)F)c2C1` [A12, CC(=O)N1CCC2=C(C1)C(=C3C(=C(SC3=N2)C(=O)NC4=CC=CC(=C4)C#N)N)C(F)(F)F], the inhibition at 10 µM was determined as 9.32%. With `CCOc1ccc(C2N(c3ccc(Cl)c(Cl)c3)N=C(C(C)=O)N2c2ccc(N3CCN(C(C)=O)CC3)cc2)cc1` (stereo not shown) [A13, CCOC1=CC=C(C=C1)C2N(C(=NN2C3=CC(=C(C=C3)Cl)Cl)C(=O)C)C4=CC=C(C=C4)N5CCN(CC5)C(=O)C] the figure was 15.8%.

Turning to `O=C(Nc1ccccc1C(F)(F)F)c1ccc2c(c1)C(=O)N(Cc1cccnc1)C2=O` [A14, C1=CC=C(C(=C1)C(F)(F)F)NC(=O)C2=CC3=C(C=C2)C(=O)N(C3=O)CC4=CN=CC=C4], the inhibition at 10 µM was found to be 2.68%.

With `O=C(CC(c1ccc(F)cc1)c1cn(Cc2ccccc2)c2ccccc12)NCCc1ccc(Cl)cc1Cl` (stereo not shown) [B1, C1=CC=C(C=C1)CN2C=C(C3=CC=CC=C32)C(CC(=O)NCCC4=C(C=C(C=C4)Cl)Cl)C5=CC=C(C=C5)F], the inhibition at 10 µM stood at 6.13%. In the case of `O=C(CC(c1ccc(F)cc1)c1cn(Cc2ccccc2)c2ccccc12)NCc1ccccn1` (stereo not shown) [B2, C1=CC=C(C=C1)CN2C=C(C3=CC=CC=C32)C(CC(=O)NCC4=CC=CC=N4)C5=CC=C(C=C5)F] it was 11.5%; in that of `COc1ccc(Cn2cc(C(CC(=O)NCCc3ccccn3)c3ccc(C)cc3)c3ccccc32)cc1` (stereo not shown) [B3, CC1=CC=C(C=C1)C(CC(=O)NCCC2=CC=CC=N2)C3=CN(C4=CC=CC=C43)CC5=CC=C(C=C5)OC], 14.2%; in that of `NC(=O)CC(c1ccc(C(F)(F)F)cc1)c1cn(Cc2ccc(F)cc2)c2ccccc12` (stereo not shown) [B4, C1=CC=C2C(=C1)C(=CN2CC3=CC=C(C=C3)F)C(CC(=O)N)C4=CC=C(C=C4)C(F)(F)F], 13.4%. In the case of `Cc1cccc(C(CC(=O)NCCc2ccccc2)c2cn(Cc3ccc(F)cc3)c3ccccc23)c1` (stereo not shown) [B5, CC1=CC(=CC=C1)C(CC(=O)NCCC2=CC=CC=C2)C3=CN(C4=CC=CC=C43)CC5=CC=C(C=C5)F] it was 2.93%; in that of `Cc1cccc(C(CC(=O)NCCC(C)C)c2cn(Cc3ccc(F)cc3)c3ccccc23)c1` (stereo not shown) [B6, CC1=CC(=CC=C1)C(CC(=O)NCCC(C)C)C2=CN(C3=CC=CC=C32)CC4=CC=C(C=C4)F], 7.88%; in that of `CCCCNC(=O)CC(c1cccc(C)c1)c1cn(Cc2ccc(F)cc2)c2ccccc12` (stereo not shown) [B7, CCCCNC(=O)CC(C1=CC=CC(=C1)C)C2=CN(C3=CC=CC=C32)CC4=CC=C(C=C4)F], 1.84%. With `O=C(CC(c1ccc(F)cc1)c1cn(Cc2ccccc2)c2ccccc12)NC1CC1` (stereo not shown) [B8, C1CC1NC(=O)CC(C2=CC=C(C=C2)F)C3=CN(C4=CC=CC=C43)CC5=CC=CC=C5] the figure was 13.6%; with `Cc1ccc(Cn2cc(C(CC(=O)NC3CCCCC3)c3ccc(F)cc3)c3ccccc32)cc1` (stereo not shown) [B9, CC1=CC=C(C=C1)CN2C=C(C3=CC=CC=C32)C(CC(=O)NC4CCCCC4)C5=CC=C(C=C5)F], 6.85%. Turning to `O=C(CC(c1ccc(C(F)(F)F)cc1)c1cn(Cc2ccccc2)c2ccccc12)NCCN1CCCC1` (stereo not shown) [B11, C1CCN(C1)CCNC(=O)CC(C2=CC=C(C=C2)C(F)(F)F)C3=CN(C4=CC=CC=C43)CC5=CC=CC=C5], the inhibition at 10 µM worked out at 7.97%. Turning to `COc1ccc(Cn2cc(C(CC(=O)NCCc3ccccn3)c3cc(C)ccc3F)c3ccccc32)cc1` (stereo not shown) [B12, CC1=CC(=C(C=C1)F)C(CC(=O)NCCC2=CC=CC=N2)C3=CN(C4=CC=CC=C43)CC5=CC=C(C=C5)OC], the inhibition at 10 µM is 4.98%. With `O=C(CC(c1cccc(Oc2ccc(Cl)cc2)c1)c1cn(Cc2ccc(F)cc2)c2ccccc12)NCCc1ccccn1` (stereo not shown) [B13, C1=CC=C2C(=C1)C(=CN2CC3=CC=C(C=C3)F)C(CC(=O)NCCC4=CC=CC=N4)C5=CC(=CC=C5)OC6=CC=C(C=C6)Cl], the inhibition at 10 µM is 6.28%. In the case of `Cn1cc(C(CC(=O)NCCc2ccccn2)c2cccc(C(F)(F)F)c2)c2ccccc21` (stereo not shown) [B14, CN1C=C(C2=CC=CC=C21)C(CC(=O)NCCC3=CC=CC=N3)C4=CC(=CC=C4)C(F)(F)F], the inhibition at 10 µM came to 24.8%. Take `CCOc1ccc(C(CC(=O)NCCc2ccccn2)c2cn(Cc3ccc(OC)cc3)c3ccccc23)cc1` (stereo not shown) [B15, CCOC1=CC=C(C=C1)C(CC(=O)NCCC2=CC=CC=N2)C3=CN(C4=CC=CC=C43)CC5=CC=C(C=C5)OC]: the inhibition at 10 µM was 20.5%. As to `O=C(CC(c1ccc(OCc2ccccc2)cc1)c1cn(Cc2ccc(F)cc2)c2ccccc12)NCCc1ccccn1` (stereo not shown) [B16, C1=CC=C(C=C1)COC2=CC=C(C=C2)C(CC(=O)NCCC3=CC=CC=N3)C4=CN(C5=CC=CC=C54)CC6=CC=C(C=C6)F], the inhibition at 10 µM came to 4.16%. In the case of `COc1ccc(C(CC(=O)NCCc2ccccn2)c2cn(Cc3ccc(F)cc3)c3ccccc23)cc1OC` (stereo not shown) [B17, COC1=C(C=C(C=C1)C(CC(=O)NCCC2=CC=CC=N2)C3=CN(C4=CC=CC=C43)CC5=CC=C(C=C5)F)OC] it was 34.9%; in that of `Cc1ccc(Cn2cc(C(CC(=O)NCCc3ccccn3)c3ccc(F)cc3)c3ccccc32)cc1` (stereo not shown) [B18, CC1=CC=C(C=C1)CN2C=C(C3=CC=CC=C32)C(CC(=O)NCCC4=CC=CC=N4)C5=CC=C(C=C5)F], 13.7%. For the molecule `O=C(CC(c1ccc(F)cc1)c1cn(Cc2ccc(F)cc2)c2ccccc12)NCCc1ccccn1` (stereo not shown) [B19, C1=CC=C2C(=C1)C(=CN2CC3=CC=C(C=C3)F)C(CC(=O)NCCC4=CC=CC=N4)C5=CC=C(C=C5)F], the inhibition at 10 µM is 22.9%.

Consider `COc1ccc(C(CC(=O)NCCc2ccccn2)c2cn(Cc3ccc(F)cc3)c3ccccc23)cc1` (stereo not shown) [B20, COC1=CC=C(C=C1)C(CC(=O)NCCC2=CC=CC=N2)C3=CN(C4=CC=CC=C43)CC5=CC=C(C=C5)F], for which the inhibition at 10 µM came to 37.5%.

For the molecule `CCN1CCN(C(=O)CC(c2ccc(C(F)(F)F)cc2)c2cn(Cc3ccc(F)cc3)c3ccccc23)CC1` (stereo not shown) [B21, CCN1CCN(CC1)C(=O)CC(C2=CC=C(C=C2)C(F)(F)F)C3=CN(C4=CC=CC=C43)CC5=CC=C(C=C5)F], the inhibition at 10 µM turned out to be 71.4%. Regarding `COc1cc(OC)cc(C(CC(=O)NCCc2ccccn2)c2cn(Cc3ccccc3)c3ccccc23)c1` (stereo not shown) [B22, COC1=CC(=CC(=C1)C(CC(=O)NCCC2=CC=CC=N2)C3=CN(C4=CC=CC=C43)CC5=CC=CC=C5)OC], the inhibition at 10 µM stood at 45%.
